# Source: US20220144847A1, “HETEROCYCLIC COMPOUND, PHARMACEUTICAL COMPOSITION COMPRISING SAME, PREPARATION METHOD THEREFOR, AND USE THEREOF” (Sichuan Kelun-Biotech Biopharmaceutical Co., Ltd., priority 2019, published 2022)
# Assays:
# Format in all cases: biochemical
# [1] = target: RET-V804M (Homo sapiens, UniProt P07949, V804M); experiment: RET inhibition experiment (HTRF KinEASE-TK kit), mutant RET-V804M; conditions: read-out: The IC50 (nM) for inhibiting V804M
# In short: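 Enzyme was pre-incubated with compound at room temperature for 30 min, then substrate and ATP were added for a 40 min reaction. HTRF signal was read after 45 min with TK antibody-cryptate and streptavidin-XL665. IC50 came from a four-parameter fit of percent inhibition against DMSO and no-enzyme controls.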
# [2] = target: RET-M918T (Homo sapiens, UniProt P07949, M918T); experiment: RET inhibition experiment (HTRF KinEASE-TK kit), mutant RET-M918T; conditions: read-out: The IC50 (nM) for inhibiting the enzyme RET-M918T
# RET-M918T, sequence (P07949 29-1114 M918T): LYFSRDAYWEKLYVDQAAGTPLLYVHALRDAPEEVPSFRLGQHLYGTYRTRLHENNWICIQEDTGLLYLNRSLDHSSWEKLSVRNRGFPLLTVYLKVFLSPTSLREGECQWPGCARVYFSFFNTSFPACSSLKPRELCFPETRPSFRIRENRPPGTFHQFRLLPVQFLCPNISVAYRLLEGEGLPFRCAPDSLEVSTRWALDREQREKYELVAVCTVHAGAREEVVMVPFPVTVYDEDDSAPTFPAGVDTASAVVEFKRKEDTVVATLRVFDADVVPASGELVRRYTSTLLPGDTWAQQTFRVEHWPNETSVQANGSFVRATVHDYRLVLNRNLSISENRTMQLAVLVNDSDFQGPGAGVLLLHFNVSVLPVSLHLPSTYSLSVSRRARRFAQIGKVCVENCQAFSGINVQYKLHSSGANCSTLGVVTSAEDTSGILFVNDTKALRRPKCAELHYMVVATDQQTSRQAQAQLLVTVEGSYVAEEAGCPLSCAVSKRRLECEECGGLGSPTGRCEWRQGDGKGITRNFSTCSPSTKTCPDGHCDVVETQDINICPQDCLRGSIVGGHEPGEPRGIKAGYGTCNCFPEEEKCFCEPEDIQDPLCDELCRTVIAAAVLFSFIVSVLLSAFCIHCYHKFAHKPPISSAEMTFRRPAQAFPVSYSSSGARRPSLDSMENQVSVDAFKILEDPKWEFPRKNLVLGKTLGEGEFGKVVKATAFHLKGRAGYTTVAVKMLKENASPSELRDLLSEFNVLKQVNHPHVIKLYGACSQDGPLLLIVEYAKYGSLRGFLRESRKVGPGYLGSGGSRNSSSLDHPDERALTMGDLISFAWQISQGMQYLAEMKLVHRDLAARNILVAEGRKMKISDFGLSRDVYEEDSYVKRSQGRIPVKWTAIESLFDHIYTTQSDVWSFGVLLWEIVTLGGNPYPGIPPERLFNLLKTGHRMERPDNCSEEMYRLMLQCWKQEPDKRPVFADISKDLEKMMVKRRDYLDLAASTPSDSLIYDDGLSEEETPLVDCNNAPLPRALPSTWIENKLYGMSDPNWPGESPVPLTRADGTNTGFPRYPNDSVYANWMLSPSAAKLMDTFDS
# Protocol: (§1) Experimental method: […] After incubation at room temperature for 40 min, TK antibody-cryptate and streptavidin-XL665 were added, and the test was performed after incubation at room temperature for 45 min. With the solvent group (DMSO) as the negative control and the buffer group (without RET enzyme) as the blank control, the relative inhibitory activity percentages (i.e., inhibition rates) of different concentrations of the compounds were computed as per the following formula: […] The relative inhibitory activity percentages of different concentrations of the compounds were plotted with respect to the compound concentrations, and the curve was fitted according to a four-parameter model to compute the IC50 value as per the following formula: y=min+(max-min)/(1+(x/IC50)^(-Hillslope)) where y is the relative inhibitory activity percentage, max is the maximum value of the fitted curve, min is the minimum value of the fitted curve, x is the logarithmic concentration of the compound, and Hillslope is the slope of the curve.
# [3] = target: T1, RET-CCDC6 (Homo sapiens, UniProt P07949); experiment: RET inhibition experiment (HTRF KinEASE-TK kit), fusion-type RET enzyme; conditions: read-out: The IC50 (nM) for inhibiting RET-CCDC6
# T1 construct: CCDC6 fusion partner (Q16204 for human); the other entry of the earlier key: CCDC6 (Q16204, Coiled-coil domain-containing protein 6)
# T1 sequence (P07949 with tags, fused parts or gaps): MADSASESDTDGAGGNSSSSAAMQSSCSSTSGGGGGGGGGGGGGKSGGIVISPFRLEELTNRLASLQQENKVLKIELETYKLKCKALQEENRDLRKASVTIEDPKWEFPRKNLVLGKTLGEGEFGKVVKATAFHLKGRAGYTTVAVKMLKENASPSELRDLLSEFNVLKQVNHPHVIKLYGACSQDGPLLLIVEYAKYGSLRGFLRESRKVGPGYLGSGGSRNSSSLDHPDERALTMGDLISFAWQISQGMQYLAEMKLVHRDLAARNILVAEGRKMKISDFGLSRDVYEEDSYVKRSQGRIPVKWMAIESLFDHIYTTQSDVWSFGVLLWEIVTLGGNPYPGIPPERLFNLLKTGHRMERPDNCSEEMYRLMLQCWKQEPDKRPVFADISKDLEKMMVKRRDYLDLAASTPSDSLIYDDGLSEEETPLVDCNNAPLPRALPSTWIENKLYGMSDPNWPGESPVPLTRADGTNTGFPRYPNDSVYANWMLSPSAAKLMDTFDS
# Protocol: as §1
# [4] = target: RET-V804L (Homo sapiens, UniProt P07949, V804L); experiment: RET inhibition experiment (HTRF KinEASE-TK kit), mutant RET-V804L; conditions: read-out: The IC50 (nM) for inhibiting RET-V804L
# RET-V804L, sequence (P07949 29-1114 V804L): as the sequence (P07949 29-1114 M918T) above, with V776L, T890M counted along it
# Protocol: as §1
# RET-V804M, sequence (P07949 29-1114 V804M): as the sequence (P07949 29-1114 M918T) above, with V776M, T890M counted along it
smiles,measurement,setting,value
"Cc1cc(Nc2cc(C)[nH]n2)nc(-c2ccc(N3CC4CC(C3)N4Cc3ccc(-n4cc(F)cn4)nc3)nc2)n1 [Compound 17, 2-(6-(6-((6-(4-fluoro-1H-pyrazol-1-yl)pyridin-3-yl)methyl)-3,6-diazabicyclo[3.1.1]heptan-3-yl)pyridin-3-yl)-6-methyl-N-(5-methyl-1H-pyrazol-3-yl)pyrimidin-4-amine]",IC50,[1],1.03 ± 0.47 nM
same,IC50,[2],1.47 ± 0.29 nM
same,IC50,[3],2.5 ± 0.55 nM
same,IC50,[4],6.54 ± 2.43 nM
